{"source": "paper PMC7181660", "about": "“A novel specific PERK activator reduces toxicity and extends survival in Huntington's disease models” (Scientific Reports, 2020)", "key": {"panel of 391 kinases [1]": {"target": "panel of 391 kinases (Homo sapiens, UniProt Q6IQ55)", "sequence (Q6IQ55 whole entry)": "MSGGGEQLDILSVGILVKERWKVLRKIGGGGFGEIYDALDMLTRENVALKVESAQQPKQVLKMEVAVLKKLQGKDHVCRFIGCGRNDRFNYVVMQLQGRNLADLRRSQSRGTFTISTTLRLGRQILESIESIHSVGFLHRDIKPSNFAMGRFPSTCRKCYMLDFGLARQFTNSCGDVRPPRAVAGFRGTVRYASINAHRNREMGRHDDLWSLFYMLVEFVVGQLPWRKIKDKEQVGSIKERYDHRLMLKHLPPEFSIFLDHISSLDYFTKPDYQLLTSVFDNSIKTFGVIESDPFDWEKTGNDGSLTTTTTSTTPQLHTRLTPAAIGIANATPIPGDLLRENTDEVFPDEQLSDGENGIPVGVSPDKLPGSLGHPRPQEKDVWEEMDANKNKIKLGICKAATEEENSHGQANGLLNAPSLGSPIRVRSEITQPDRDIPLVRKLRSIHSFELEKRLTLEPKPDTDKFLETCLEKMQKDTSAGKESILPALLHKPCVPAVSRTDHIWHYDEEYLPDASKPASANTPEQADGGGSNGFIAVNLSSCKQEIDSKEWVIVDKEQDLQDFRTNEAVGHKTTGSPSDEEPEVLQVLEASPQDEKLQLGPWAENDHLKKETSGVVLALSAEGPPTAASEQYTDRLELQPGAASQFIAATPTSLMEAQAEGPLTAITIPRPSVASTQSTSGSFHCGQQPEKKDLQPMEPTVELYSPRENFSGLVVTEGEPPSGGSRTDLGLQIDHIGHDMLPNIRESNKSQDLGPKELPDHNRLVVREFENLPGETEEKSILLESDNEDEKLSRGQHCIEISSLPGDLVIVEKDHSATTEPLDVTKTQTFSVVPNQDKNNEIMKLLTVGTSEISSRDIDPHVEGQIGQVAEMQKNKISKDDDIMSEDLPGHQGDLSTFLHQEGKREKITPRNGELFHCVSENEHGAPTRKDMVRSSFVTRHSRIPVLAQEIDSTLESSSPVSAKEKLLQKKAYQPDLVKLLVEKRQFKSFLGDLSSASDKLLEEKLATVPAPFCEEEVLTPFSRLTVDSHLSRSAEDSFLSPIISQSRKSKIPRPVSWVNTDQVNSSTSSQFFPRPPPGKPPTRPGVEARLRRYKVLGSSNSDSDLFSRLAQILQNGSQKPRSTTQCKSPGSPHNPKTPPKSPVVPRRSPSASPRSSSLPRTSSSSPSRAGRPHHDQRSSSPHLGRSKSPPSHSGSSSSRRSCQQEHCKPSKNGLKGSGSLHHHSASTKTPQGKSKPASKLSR", "assay": "biochemical", "type": "biochemical", "conditions": "TTBK2, MK-28 1 µM, ATP 1 µM"}, "panel of 391 kinases [2]": {"target": "panel of 391 kinases (Homo sapiens, UniProt P41279)", "sequence (P41279 whole entry)": "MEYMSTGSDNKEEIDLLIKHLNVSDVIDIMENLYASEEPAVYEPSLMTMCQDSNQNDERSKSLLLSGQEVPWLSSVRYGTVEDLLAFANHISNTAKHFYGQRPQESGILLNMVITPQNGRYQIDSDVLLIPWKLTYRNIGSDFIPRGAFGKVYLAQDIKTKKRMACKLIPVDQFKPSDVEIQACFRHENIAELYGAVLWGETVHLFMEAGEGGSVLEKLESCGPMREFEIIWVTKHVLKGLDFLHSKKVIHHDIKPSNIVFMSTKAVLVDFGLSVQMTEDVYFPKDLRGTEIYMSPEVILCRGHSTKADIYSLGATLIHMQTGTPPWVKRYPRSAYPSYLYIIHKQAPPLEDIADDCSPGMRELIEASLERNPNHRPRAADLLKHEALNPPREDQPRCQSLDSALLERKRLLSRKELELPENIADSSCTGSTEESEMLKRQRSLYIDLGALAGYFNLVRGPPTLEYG", "assay": "biochemical", "type": "biochemical", "conditions": "COT1/MAP3K8, MK-28 1 µM, ATP 1 µM"}, "panel of 391 kinases [3]": {"target": "panel of 391 kinases (Homo sapiens, UniProt P43405)", "assay": "biochemical", "type": "biochemical", "conditions": "SYK, MK-28 1 µM, ATP 1 µM"}, "panel of 391 kinases [4]": {"target": "panel of 391 kinases (Homo sapiens, UniProt Q15831)", "sequence (Q15831 whole entry)": "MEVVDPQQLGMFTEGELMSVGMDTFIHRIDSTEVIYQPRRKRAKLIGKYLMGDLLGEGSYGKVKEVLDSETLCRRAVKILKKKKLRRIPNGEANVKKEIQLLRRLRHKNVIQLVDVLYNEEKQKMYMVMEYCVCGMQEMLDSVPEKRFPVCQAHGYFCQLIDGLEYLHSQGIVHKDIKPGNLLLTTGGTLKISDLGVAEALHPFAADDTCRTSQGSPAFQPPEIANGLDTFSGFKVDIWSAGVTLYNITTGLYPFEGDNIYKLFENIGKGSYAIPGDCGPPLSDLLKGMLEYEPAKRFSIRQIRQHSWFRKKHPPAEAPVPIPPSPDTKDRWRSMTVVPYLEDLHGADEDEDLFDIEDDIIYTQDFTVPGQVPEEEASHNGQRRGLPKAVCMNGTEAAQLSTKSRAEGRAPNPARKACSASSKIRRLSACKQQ", "assay": "biochemical", "type": "biochemical", "conditions": "LKB1, MK-28 1 µM, ATP 1 µM"}, "panel of 391 kinases [5]": {"target": "panel of 391 kinases (Homo sapiens, UniProt Q16832)", "sequence (Q16832 22-855)": "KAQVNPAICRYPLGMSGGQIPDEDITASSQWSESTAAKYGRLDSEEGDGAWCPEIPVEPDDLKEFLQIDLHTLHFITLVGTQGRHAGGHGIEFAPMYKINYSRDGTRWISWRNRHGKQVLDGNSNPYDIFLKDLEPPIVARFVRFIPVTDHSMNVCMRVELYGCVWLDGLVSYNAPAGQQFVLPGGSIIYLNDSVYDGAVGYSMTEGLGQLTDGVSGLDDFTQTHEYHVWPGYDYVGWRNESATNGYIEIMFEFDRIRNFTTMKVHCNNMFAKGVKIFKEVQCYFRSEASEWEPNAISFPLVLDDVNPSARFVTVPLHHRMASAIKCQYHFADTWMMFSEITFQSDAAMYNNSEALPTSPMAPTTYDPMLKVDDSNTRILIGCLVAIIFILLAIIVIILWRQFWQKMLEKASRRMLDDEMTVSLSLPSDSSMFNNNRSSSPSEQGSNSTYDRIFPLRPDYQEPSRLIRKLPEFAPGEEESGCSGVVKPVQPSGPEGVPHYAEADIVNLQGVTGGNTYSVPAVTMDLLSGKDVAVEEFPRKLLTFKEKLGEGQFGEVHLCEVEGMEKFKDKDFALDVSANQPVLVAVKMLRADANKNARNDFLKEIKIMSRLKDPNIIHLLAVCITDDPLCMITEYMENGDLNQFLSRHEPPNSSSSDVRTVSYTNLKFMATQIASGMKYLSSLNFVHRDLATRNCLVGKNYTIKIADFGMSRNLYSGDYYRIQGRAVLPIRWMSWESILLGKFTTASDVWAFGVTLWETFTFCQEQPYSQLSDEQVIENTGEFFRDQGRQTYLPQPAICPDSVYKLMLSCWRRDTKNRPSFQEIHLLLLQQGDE", "assay": "biochemical", "type": "biochemical", "conditions": "DDR2, MK-28 1 µM, ATP 1 µM"}, "panel of 391 kinases [6]": {"target": "panel of 391 kinases (Homo sapiens, UniProt P49674)", "sequence (P49674 whole entry)": "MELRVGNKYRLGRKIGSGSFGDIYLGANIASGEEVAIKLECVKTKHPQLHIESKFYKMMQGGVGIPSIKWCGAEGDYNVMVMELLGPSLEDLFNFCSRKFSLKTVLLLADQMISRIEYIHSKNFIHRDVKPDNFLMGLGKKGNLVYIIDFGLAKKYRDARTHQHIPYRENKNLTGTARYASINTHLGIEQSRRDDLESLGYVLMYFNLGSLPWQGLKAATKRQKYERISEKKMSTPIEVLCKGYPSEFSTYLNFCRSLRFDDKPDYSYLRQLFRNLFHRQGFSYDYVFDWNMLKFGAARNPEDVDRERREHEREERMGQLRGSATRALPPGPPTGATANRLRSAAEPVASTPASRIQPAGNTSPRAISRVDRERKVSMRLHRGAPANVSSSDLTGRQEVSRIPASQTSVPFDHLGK", "assay": "biochemical", "type": "biochemical", "conditions": "CK1epsilon, MK-28 1 µM, ATP 1 µM"}, "eIF2α-P": {"tested_on": "eIF2α-P", "assay": "Brain striatum immunofluorescence of eIF2α-P / total eIF2α", "type": "in vivo, mice", "conditions": "week 4 after pump implantation", "method": "Under anesthesia, animals were perfused with 4% PFA (formaldehyde in phosphate-buffered saline (PBS)) and the brains were removed and soaked in 4% PFA overnight. Then, brains were incubated overnight in 30% sucrose solution and frozen in OCT compound Tissue-Tek by using dry ice. Sections (10 µm) of the striatum were obtained by cryostat. Brain sections were processed for immunochemistry with the kind help of Daniel Frenkel. They were washed with PBS for 10 minutes, incubated in 0.5% triton-X-100 for 10 minutes and then in blocking solution containing 1% bovine serum albumin (BSA), 10% normal goat serum and 0.25% triton for one hour at room temperature. The samples were rinsed with PBS and incubated overnight at 4 °C with the selected primary antibody diluted in blocking solution (eIF2α-mouse [1:400] and phosphorylated eIF2α-rabbit [1:400]). […] After washing with PBS, samples were placed in DAPI (4′,6-diamidino-2-phenylindole) diluted in PBS for 10 minutes, mounted and examined by confocal microscope Zeiss LSM-510, 3 slides were analysed from each subject.\nSignal quantification and cell counting were done using the ImageJ program. The value obtained for the phosphorylated eIF2α signal was divided by the total eIF2α signal in the same image. […] Statistical significance was determined at P < 0.05."}, "EIF2AK4 (GCN2)": {"target": "EIF2AK4 (GCN2) (Homo sapiens, UniProt Q9P2K8)", "sequence (Q9P2K8 whole entry)": "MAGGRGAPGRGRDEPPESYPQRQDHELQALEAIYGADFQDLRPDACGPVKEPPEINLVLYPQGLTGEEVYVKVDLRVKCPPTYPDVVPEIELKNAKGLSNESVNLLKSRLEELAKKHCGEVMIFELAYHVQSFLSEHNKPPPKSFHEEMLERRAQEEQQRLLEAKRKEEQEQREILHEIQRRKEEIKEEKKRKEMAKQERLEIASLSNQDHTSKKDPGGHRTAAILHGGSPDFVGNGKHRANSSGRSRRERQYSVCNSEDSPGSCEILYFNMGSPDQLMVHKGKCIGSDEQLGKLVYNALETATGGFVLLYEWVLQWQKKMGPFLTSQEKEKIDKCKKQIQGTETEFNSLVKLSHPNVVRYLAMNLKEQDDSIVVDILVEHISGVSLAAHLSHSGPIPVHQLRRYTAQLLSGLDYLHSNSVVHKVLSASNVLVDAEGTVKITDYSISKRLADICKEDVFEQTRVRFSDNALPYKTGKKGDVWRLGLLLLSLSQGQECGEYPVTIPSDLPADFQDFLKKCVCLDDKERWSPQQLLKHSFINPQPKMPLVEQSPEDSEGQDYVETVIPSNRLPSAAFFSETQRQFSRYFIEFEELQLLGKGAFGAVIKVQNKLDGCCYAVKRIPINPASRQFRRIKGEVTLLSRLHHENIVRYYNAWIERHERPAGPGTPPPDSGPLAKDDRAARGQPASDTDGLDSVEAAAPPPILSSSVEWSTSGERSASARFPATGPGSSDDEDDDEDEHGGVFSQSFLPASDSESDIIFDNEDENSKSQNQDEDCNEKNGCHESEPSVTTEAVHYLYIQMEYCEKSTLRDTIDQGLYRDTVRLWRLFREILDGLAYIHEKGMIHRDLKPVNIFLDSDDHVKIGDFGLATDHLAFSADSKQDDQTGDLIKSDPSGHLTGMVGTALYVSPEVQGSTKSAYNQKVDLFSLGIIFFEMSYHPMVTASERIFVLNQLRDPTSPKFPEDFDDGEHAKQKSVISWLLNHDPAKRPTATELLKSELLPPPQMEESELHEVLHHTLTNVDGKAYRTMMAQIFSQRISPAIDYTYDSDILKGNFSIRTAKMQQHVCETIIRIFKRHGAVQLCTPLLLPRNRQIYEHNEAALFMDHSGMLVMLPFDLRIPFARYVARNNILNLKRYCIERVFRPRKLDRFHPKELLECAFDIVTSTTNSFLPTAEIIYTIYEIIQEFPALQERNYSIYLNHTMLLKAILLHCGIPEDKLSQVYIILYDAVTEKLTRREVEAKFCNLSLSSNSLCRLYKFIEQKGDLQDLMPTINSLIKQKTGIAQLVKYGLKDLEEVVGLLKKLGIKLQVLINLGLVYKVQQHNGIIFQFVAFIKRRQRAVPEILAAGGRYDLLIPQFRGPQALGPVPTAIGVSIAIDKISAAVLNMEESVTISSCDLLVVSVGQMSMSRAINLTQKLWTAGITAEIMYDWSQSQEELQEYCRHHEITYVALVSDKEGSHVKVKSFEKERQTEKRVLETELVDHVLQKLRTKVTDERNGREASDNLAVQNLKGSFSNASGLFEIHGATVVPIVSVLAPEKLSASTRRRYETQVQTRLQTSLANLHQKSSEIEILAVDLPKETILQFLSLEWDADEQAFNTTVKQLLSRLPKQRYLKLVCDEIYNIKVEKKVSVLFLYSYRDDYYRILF", "assay": "In vitro HotSpot kinase assay on GCN2", "type": "biochemical", "conditions": "plateau considered reached at 10 µM; read-out: EC50 of GCN2 activation", "method": "In vitro kinase assays with purified components and full kinase panel analysis was done at Reaction Biology Corp. (Malvern, PA, USA) using the HotSpot Kinase Assay. Reactions were performed for 20 min at room temp. using ^33P-ATP (Specific activity 10 μCi/μl) with 1 μM total ATP, 20 μM substrate and kinases in the nanomolar range in 20 mM Hepes (pH 7.5), 10 mM MgCl2, 1 mM EGTA, 0.02% Brij35, 0.02 mg/ml BSA, 0.1 mM Na3VO4, 2 mM DTT, 1% DMSO and other required factors depending on the assayed kinase. […]\nwas calculated from the data in Fig. 3. Note that for the calculation for GCN2, we considered […]\nSuppl. Fig. S3. Modulation of PERK by A4. A4 was tested for its effect on isolated PERK in vitro, showing a weak activating effect in the nanomolar range. (performed at Reaction Biology Corp. using the HotSpot Kinase Assay).\n(1 picture or pasted object on this page, not shown here)"}, "R6/2 HD mouse model [7]": {"tested_on": "R6/2 HD mouse model", "assay": "Ultrasonic vocalizations", "type": "in vivo, mice", "conditions": "R6/2 TG males", "method": "Ultrasonic vocalizations were recorded on males during the first 5 minutes of female exposure, 12 weeks after birth. Vocal emissions were monitored by an UltraSoundGate Condenser Microphone (CM 16; Avisoft Bioacoustics, Berlin, Germany) placed 16 cm above the floor of each male's cage. […]. […] Spectrograms were produced at 586 Hz of frequency resolution and 0.427 ms of time resolution. Figure plotted by MATLAB code."}, "PERK-P": {"tested_on": "PERK-P", "assay": "PERK phosphorylation shift by immunoblot in MEF cells", "type": "cell-based", "conditions": "3 hours, Thap 2 μg/ml"}, "R6/2 HD mouse model [8]": {"tested_on": "R6/2 HD mouse model", "assay": "Blood glucose levels", "type": "in vivo, mice", "conditions": "TG + MK-28", "method": "For blood glucose measurements, blood samples from all the evaluated groups (n = 34) were obtained from the tail and measured with the Accu-Check glucose monitor (Roche Diagnostics, USA). Two independent glucose measurements were performed at the same hour 3 and 12 weeks after birth corresponding to the asymptomatic and symptomatic stages respectively. Glucose levels are expressed in mg/dl."}, "[9]": {"assay": "Body weight during therapeutic study (Alzet minipumps)", "type": "in vivo, mice", "conditions": "1 mg/kg subcutaneous minipump, 7 weeks after pump implantation", "method": "Alzet pumps model 1004 (Alzet, USA), with a rate of 0.11 µl/hour and 28 days effective compound delivery was used. MK-28 compound was dissolved in 1:1 DMSO/PEG400 and prepared to delivery subcutaneously 6 mg/kg MK-28 for toxicity studies (n = 8) or 1 mg/kg for therapeutic evaluation in R6/2 mice (n = 72). For toxicity studies mice receiving six times the therapeutic dose of MK-28 or vehicle were weighed every two days for two consecutive weeks. […]. Alzet pumps were implanted in 4 weeks old mice and MK-28 was administered at 1 mg/kg with continuous dosing for 28 days. […]"}, "[10]": {"conditions": "read-out: % Enzyme Activity (relative to DMSO controls)"}}}
{"smiles": "CN(/N=C\\c1ccc(O)c(O)c1)c1nc(-c2ccccc2)cc(-c2ccccc2)n1", "note": "[MK-28]", "values": [{"measurement": "% Enzyme Activity (relative to DMSO controls)", "setting": "panel of 391 kinases [1]", "value": 97.38, "unit": "%"}, {"measurement": "remaining activity at 1 µM", "setting": "panel of 391 kinases [1]; [10]", "value": 98.9, "unit": "%"}, {"measurement": "% Enzyme Activity (relative to DMSO controls)", "setting": "panel of 391 kinases [2]", "value": 95.23, "unit": "%"}, {"measurement": "remaining activity at 1 µM", "setting": "panel of 391 kinases [2]; [10]", "value": 96, "unit": "%"}, {"measurement": "% Enzyme Activity (relative to DMSO controls)", "setting": "panel of 391 kinases [3]", "value": 91.75, "unit": "%"}, {"measurement": "remaining activity at 1 µM", "setting": "panel of 391 kinases [3]; [10]", "value": 93, "unit": "%"}, {"measurement": "% Enzyme Activity (relative to DMSO controls)", "setting": "panel of 391 kinases [4]", "value": 90.38, "unit": "%"}, {"measurement": "remaining activity at 1 µM", "setting": "panel of 391 kinases [4]; [10]", "value": 97.4, "unit": "%"}, {"measurement": "% Enzyme Activity (relative to DMSO controls)", "setting": "panel of 391 kinases [5]", "value": 95.21, "unit": "%"}, {"measurement": "remaining activity at 1 µM", "setting": "panel of 391 kinases [5]; [10]", "value": 97.4, "unit": "%"}, {"measurement": "% Enzyme Activity (relative to DMSO controls)", "setting": "panel of 391 kinases [6]", "value": 82.77, "unit": "%"}, {"measurement": "remaining activity at 1 µM", "setting": "panel of 391 kinases [6]; [10]", "value": 83.4, "unit": "%"}, {"measurement": "increase of eIF2α-P levels in striatum", "setting": "eIF2α-P; TG mice", "value": "~ 6 fold"}, {"measurement": "increase of eIF2α-P levels in striatum", "setting": "eIF2α-P; WT mice", "value": "~ 7 fold"}, {"measurement": "EC50", "setting": "EIF2AK4 (GCN2)", "value": 3.5, "unit": "µM"}, {"measurement": "vocalizations", "setting": "R6/2 HD mouse model [7]; 12 weeks after birth", "value": 16, "unit": "syllables in 5 min"}, {"measurement": "increase of vocalizations vs untreated TG", "setting": "R6/2 HD mouse model [7]; p = 0.059", "value": "three-fold increase"}, {"measurement": "PERK migration shift (PERK-P)", "setting": "PERK-P", "value": "shift of part of the PERK population to a slower migration"}, {"measurement": "glucose increase ratio between disease stages (symptomatic vs asymptomatic)", "setting": "R6/2 HD mouse model [8]", "value": "109.60 ± 5.04", "unit": "%"}, {"measurement": "weight, MK-28 vs vehicle", "setting": "[9]", "value": "no significant differences"}]}
